“Also recorded” adds a separate entry of the source. Where no end group is shown, it is not given here. The star is where a group is joined. FITC = O=C1OC2(c3ccc(O)cc3Oc3cc(O)ccc32)c2ccc(NC(=S)*)cc21; Ahx = NCCCCCC(=O)O
What was measured:
[1] = tested on: CLTH/EGFR WT cells; assay: Flow cytometry cellular binding of FITC-Ahx-peptides, EGFR WT cells; format: cell-based, human; settings: 10 µM FITC-Ahx-peptide, 20 min at RT, 0.2% DMSO, MFI minus blank cells divided by spectrofluorometer correction factor
Method: (§1) Flow cytometry analysis was also performed to quantitatively analyze the binding affinity of the synthetized peptides to the different cell types. Briefly, 293T, CLTH/EGFR WT and CLTH/EGFRvIII cells (100,000 cells, 500 µL) were plated in 24-well plates and incubated overnight at 37 °C in a humidified atmosphere containing 5% CO2 overnight. The next day, cells were treated with FITC-Ahx-peptides using a stock solution in pure DMSO at 5 mM to reach a final concentration of 1, 5 or 10 µM (final percentage of DMSO of 0.2%). Plates were incubated for 20 min at RT. Cells were detached from the plates by a PBS wash, transferred to FACS tubes and washed two times with 4 mL of PBS. Cells were stained with LIVE/DEAD™ Fixable Near-IR Dead Cell Stain Kit (Thermofisher) as a viability marker. Cells were analyzed by flow cytometry on a MACSQuant Analyser 16 (Miltenyi Biotec) using the MACS Quantify software to acquire and process the data. LIVE/DEAD™ Fixable dye was excited at 640 nm and fluorescence was collected with the 785/62 nm filter. FITC was excited at 488 nm and fluorescence was collected with the 525/50 nm filter. Viable cells were gated, FITC fluorescence intensity was recorded and the mean fluorescence intensity (MFI) was measured. MFI values were then normalized by subtracting MFI from blank cells and dividing by the correction factor determined using a spectrofluorometer.
Since FITC fluorescence can be impacted by the nature of the amino acids in the peptide sequence and since the conjugation rate of FITC in the peptide synthesis can fluctuate, it was needed to measure a correction factor according to the fluorescence intensity of each peptide. As flow cytometry cannot analyze fluorescence of small molecules, a spectrofluorometer was used in similar conditions (excitation and emission) to the flow cytometry conditions. […] Fluorescence intensities at 525 nm of the FITC-Ahx-peptides in PBS were measured using a Varioskan plate reader (Thermo Scientific) and the SkanIt Software 5.0. […] Linear regressions were determined for each peptide. […]

[2] = tested on: 293T cells; assay: Flow cytometry cellular binding of FITC-Ahx-peptides, 293T cells; format: cell-based, human; settings: 20 min at RT; for Normalized MFI at 10 µM, 293T: 293T cells (negative control), 10 µM FITC-Ahx-peptide, 0.2% DMSO, MFI minus blank cells divided by spectrofluorometer correction factor
Method: as §1
Since FITC fluorescence can be impacted by the nature of the amino acids in the peptide sequence and since the conjugation rate of FITC in the peptide synthesis can fluctuate, it was needed to measure a correction factor according to the fluorescence intensity of each peptide. As flow cytometry cannot analyze fluorescence of small molecules, a spectrofluorometer was used in similar conditions (excitation and emission) to the flow cytometry conditions. Experiments were performed by the flow cytometry core facility at Institut Mondor de Recherche Biomédical (IMRB U955, France). Fluorescence intensities at 525 nm of the FITC-Ahx-peptides in PBS were measured using a Varioskan plate reader (Thermo Scientific) and the SkanIt Software 5.0. Samples with concentrations between at 0.625, 1.25, 2.5, 5, 10 and 20 µM were prepared in triplicates using stock solutions of peptides in DMSO at 5 mM. Samples (100 µL) were analyzed in a 96-well plate using the following conditions: temperature of 25 °C, excitation wavelength at 490 nm, excitation bandwidth of 5 nm, emission wavelength at 525 nm, by step of 1 nm, measurement time 100 ms, and upper lens. Linear regressions were determined for each peptide. The correction factor was determined by dividing each slope by the arbitrary value 100 and was used to normalize the MFI obtained by flow cytometry.

[3] = tested on: CLTH/EGFRvIII cells; assay: Flow cytometry cellular binding of FITC-Ahx-peptides, EGFRvIII cells; format: cell-based, human; settings: for Normalized MFI at 10 µM, vIII: EGFRvIII cells, 10 µM FITC-Ahx-peptide, 0.2% DMSO, MFI minus blank cells divided by spectrofluorometer correction factor; for Normalized MFI ratio vIII/WT from 3 different concentrations, Mean: EGFRvIII over EGFR WT cell line, mean of ratios at 1, 5 and 10 µM
From the text: Since FITC fluorescence can be impacted by the nature of the amino acids in the peptide sequence and since the conjugation rate of FITC in the peptide synthesis can fluctuate, it was needed to measure a correction factor according to the fluorescence intensity of each peptide. As flow cytometry cannot analyze fluorescence of small molecules, a spectrofluorometer was used in similar conditions (excitation and emission) to the flow cytometry conditions. […] Fluorescence intensities at 525 nm of the FITC-Ahx-peptides in PBS were measured using a Varioskan plate reader (Thermo Scientific) and the SkanIt Software 5.0. Samples with concentrations between at 0.625, 1.25, 2.5, 5, 10 and 20 µM were prepared in triplicates using stock solutions of peptides in DMSO at 5 mM. Samples (100 µL) were analyzed in a 96-well plate using the following conditions: temperature of 25 °C, excitation wavelength at 490 nm, excitation bandwidth of 5 nm, emission wavelength at 525 nm, by step of 1 nm, measurement time 100 ms, and upper lens. Linear regressions were determined for each peptide. The correction factor was determined by dividing each slope by the arbitrary value 100 and was used to normalize the MFI obtained by flow cytometry.

[4] = tested on: EGFR WT; settings: prior art; cited from earlier work
From the text: Two short peptides intended for EGFR targeting of tumor cells have been described in the prior art.

[5] = molecular target: T1, EGFRvIII (Homo sapiens, UniProt P00533, DELINS30-297G); assay: Microscale thermophoresis, EGFRvIII in solution; format: binding; settings: read-out: Kd for EGFRvIII (MST, estimated)
T1 construct: using purified and active extracellular domain of the EGFRvIII protein; purchased Sino Biological 29662-H08B

[6] = tested on: CLTH/EGFRvIII cells; assay: Flow cytometry binding of phage-displayed peptides, EGFRvIII cells; format: cell-based, human; settings: phage-displayed peptide (M13), ~10^10 phages pre-absorbed on 293T cells, 1 h at 4 °C; anti-M13_biotin + anti-biotin_PE vs secondary-only
Method: (§2) Prior to being tested with the selected phages or peptides, each cell line was incubated with different commercial antibodies to confirm their phenotype (Fig. S3). A monoclonal anti-EGFR WT antibody (Life Technologies) and an anti-EGFRvIII primary antibody (Millipore) were used in flow cytometry experiments to evaluate the expression of EGFR WT and EGFRvIII receptors on CLTH/EGFR WT cells and CLTH/EGFRvIII cells respectively. Anti-IgG1 conjugated to phycoerythrin (PE) (Miltenyi Biotec) was used as a secondary antibody to read the fluorescence of PE. 293T cells were tested as a negative control. A phage-free control experiment was also performed on each cell type prior to testing phages. Anti-M13 conjugated to biotin (Abcam) was used as a primary antibody, anti-mouse IgG3 kappa monoclonal conjugated to biotin (Abcam) as isotype control and anti-biotin conjugated to PE (Miltenyi Biotec) as secondary antibody. A list of the antibodies is available in Table S3.
Binding of the selected phages on 293T human embryo kidney, CLTH/EGFR WT and CLTH/EGFRvIII cells was characterized by flow cytometry. Approximately 1 × 10^6 293T cells (expressing endogenous levels of EGFR WT) were collected, washed with cold PBS and blocked with 2%w/v milk-PBS (MPBS), rotating for 30 min at 4 °C. […] The blocked phages were then added to the blocked cells and incubated rotating for 1 h at 4 °C. After centrifugation at 500g for 3 min, the supernatant containing non-bound phages was collected. This step allowed the removal of phages that interacted with this EGFR negative cell line (i.e. not an EGFR-specific binding). The supernatant was then used to resuspend transfected cells washed beforehand (CLTH/EGFR WT expressing EGFR WT and CLTH/EGFRvIII expressing EGFRvIII). Treated cells were incubated for 1 h at 4 °C, collected by centrifugation and washed two times with PBS at pH 7.4. Cells were stained with Viobility™ 405/520 fixable dye (Miltenyi Biotec) as a viability marker. Cells were analyzed by flow cytometry on a MACSQuant Analyser 16 (Miltenyi Biotec) using the MACS Quantify software to acquire and process the data. Viobility™ 405/520 fixable dye was excited at 405 nm and fluorescence was collected with the 525/50 nm filter. PE was excited at 488 nm and fluorescence was collected with the 579/34 nm filter. Viable cells were gated, and PE fluorescence intensity was recorded.

[7] = tested on: CLTH/EGFR WT cells; assay: Flow cytometry binding of phage-displayed peptides, EGFR WT cells; format: cell-based, human; settings: phage-displayed peptide (M13), 1 h at 4 °C
Method: as §2, with “Anti-M13 conjugated to biotin (Abcam) was used as a primary antibody, anti-mouse IgG3 kappa monoclonal conjugated to biotin (Abcam) as isotype control and anti-biotin conjugated to PE (Miltenyi Biotec) as secondary antibody. A list of the antibodies is available in Table S3.” left out
(§3) Binding of the selected phages on 293T human embryo kidney, CLTH/EGFR WT and CLTH/EGFRvIII cells was characterized by flow cytometry. […] Cells were analyzed by flow cytometry on a MACSQuant Analyser 16 (Miltenyi Biotec) using the MACS Quantify software to acquire and process the data. Viobility™ 405/520 fixable dye was excited at 405 nm and fluorescence was collected with the 525/50 nm filter. PE was excited at 488 nm and fluorescence was collected with the 579/34 nm filter. Viable cells were gated, and PE fluorescence intensity was recorded.

[8] = tested on: 293T cells; assay: Flow cytometry binding of phage-displayed peptides, 293T cells; format: cell-based, human; settings: phage-displayed peptide (M13), 1 h at 4 °C
Method: as §2, with “Anti-M13 conjugated to biotin (Abcam) was used as a primary antibody, anti-mouse IgG3 kappa monoclonal conjugated to biotin (Abcam) as isotype control and anti-biotin conjugated to PE (Miltenyi Biotec) as secondary antibody. A list of the antibodies is available in Table S3.” left out
as §3

[9] = molecular target: epidermal growth factor tyrosine kinase receptor mutation variant III (EGFRvIII) on CLTH/EGFRvIII cells (human) (UniProt P00533); assay: flow cytometry on cells; FITC-Ahx-peptides at 1, 5 or 10 µM (0.2% DMSO) on plated 293T, CLTH/EGFR WT and CLTH/EGFRvIII cells, 20 min at RT; FITC MFI of viable cells, normalised by blank cells and a spectrofluorometer correction factor

{FITC-Ahx}-FALGEA-NH2 (SMILES CC(C)C[C@H](NC(=O)[C@H](C)NC(=O)[C@H](Cc1ccccc1)NC(=O)CCCCCNC(=S)Nc1ccc2c(c1)C(=O)OC21c2ccc(O)cc2Oc2cc(O)ccc21)C(=O)NCC(=O)N[C@@H](CCC(=O)O)C(=O)N[C@@H](C)C(N)=O) [FALGEA control peptide with FITC-Ahx tag at the N-terminus, reference compound]
Normalized MFI at 10 µM, WT [1]: 0.7
Normalized MFI at 10 µM, 293T [2]: 0.9
Normalized MFI at 10 µM, vIII ([3]; 20 min at RT): 1.8
Normalized MFI ratio vIII/WT from 3 different concentrations, Mean [3]: 2.50

YHWYGYTPENVI
reported binding to EGFR WT, qualitative (YHWYGYTPENVI) [4]: proven to bind to EGFR WT

FITC-Ahx-VLGREEWSTSYW-CONH2
Normalized MFI at 10 µM, WT [1]: 4.0
Normalized MFI at 10 µM, 293T [2]: 5.1

FALGEA-NH2 [FALGEA]
Kd [5]: 3.7 µM

NESGITRIALQD [top peptide selected from the NGS data analysis]
specific binding of phage-displayed peptide to EGFRvIII cells (PE fluorescence) [6]: did not show a specific binding

{FITC-Ahx}-YHWYGYTPENVI-NH2 (SMILES CC[C@H](C)[C@H](NC(=O)[C@@H](NC(=O)[C@H](CC(N)=O)NC(=O)[C@H](CCC(=O)O)NC(=O)[C@@H]1CCCN1C(=O)[C@@H](NC(=O)[C@H](Cc1ccc(O)cc1)NC(=O)CNC(=O)[C@H](Cc1ccc(O)cc1)NC(=O)[C@H](Cc1c[nH]c2ccccc12)NC(=O)[C@H](Cc1c[nH]cn1)NC(=O)[C@H](Cc1ccc(O)cc1)NC(=O)CCCCCNC(=S)Nc1ccc2c(c1)C(=O)OC21c2ccc(O)cc2Oc2cc(O)ccc21)[C@@H](C)O)C(C)C)C(N)=O) [reference compound]
Normalized MFI at 10 µM, WT [1]: 4.5
Normalized MFI at 10 µM, 293T [2]: 7.6
Normalized MFI at 10 µM, vIII ([3]; 20 min at RT): 9.7
Normalized MFI ratio vIII/WT from 3 different concentrations, Mean [3]: 1.80

VLGREEWSTSYW [novel 12-mer peptide ligand of EGFRvIII selected by phage display]
specific binding of phage-displayed peptide to EGFRvIII cells (PE fluorescence) [6]: appeared to show specific binding to the EGFRvIII cells compared to the EGFR WT and the parental cell
non-specific interactions (293T cell binding), qualitative ([2]; FITC-Ahx-peptide, flow cytometry): minimized for VLGREEWSTSYW compared to the YHWYGYTPENVI control; also recorded: less nonspecific interaction (293T cells); also recorded: significantly less nonspecific cellular binding
cellular binding to EGFRvIII cells, qualitative ([3]; FITC-Ahx-peptide, 20 min at RT, flow cytometry): A shift of fluorescence was observed for the VLGREEWSTSYW peptide on EGFRvIII compared to 293T and EGFR WT cell lines; also recorded: much higher for VLGREEWSTSYW compared to the FALGEA control; also recorded: binds to EGFRvIII cells with high efficiency; also recorded: greater affinity in cell surface binding experiments; also recorded: weaker signal with the free C-terminal FITC labeled peptide compared to the phage displayed format of the same peptide
specificity for EGFRvIII cells versus EGFR WT cells, qualitative ([3]; FITC-Ahx-peptide, flow cytometry, MFI ratio vIII/WT at 1, 5, 10 µM): shows the specificity to EGFRvIII versus EGFR WT for VLGREEWSTSYW compared to the control peptide YHWYGYTPENVI; also recorded: good specificity compared to EGFR WT cells; also recorded: better selectivity to EGFRvIII cells than to EGFR WT cells compared to FALGEA

VLGREEWSTSYW-M13
difference in fluorescence intensity, anti-M13 vs secondary-only antibody, EGFR WT cells [7]: no significant difference in these fluorescence intensities
specific binding of phage-displayed peptide to EGFRvIII cells (PE fluorescence) [6]: showed a specific binding to EGFRvIII
difference in fluorescence intensity, anti-M13 vs secondary-only antibody, 293T cells [8]: no significant difference in these fluorescence intensities

NPIVRSAEDGQL [top peptide selected from the NGS data analysis]
specific binding of phage-displayed peptide to EGFRvIII cells (PE fluorescence) [6]: did not show a specific binding

B1: FITC-Ahx-FALGEA-CONH2 (peptide)
peptide: {FITC-Ahx}-FALGEA-NH2
SMILES: CC(C)C[C@H](NC(=O)[C@H](C)NC(=O)[C@H](Cc1ccccc1)NC(=O)CCCCCNC(=S)Nc1ccc2c(c1)C(=O)OC21c2ccc(O)cc2Oc2cc(O)ccc21)C(=O)NCC(=O)N[C@@H](CCC(=O)O)C(=O)N[C@@H](C)C(N)=O
normalized MFI at 10 µM [9]: 1.8
normalized MFI ratio vIII/WT from 3 different concentrations (mean) [9]: 2.5

Reference: paper PMC9715707, “Identification of a novel peptide ligand for the cancer-specific receptor mutation EGFRvIII using high-throughput sequencing of phage-selected peptides” (Scientific Reports, 2022)
